Assays:
sAML PDX mouse models = assay: Survival of humanized sAML PDX mice; assay type: in vivo, human sAML cells in mice
Description: Here, we established humanized mouse models using CD34^+ stem cells isolated from the peripheral blood of adult secondary AML (sAML) patients or bone marrow of normal-aged donors (63-79 years old).
The mouse models were screened by staining the PB of each mouse with a human CD45 mAb. Mice with a threshold of human CD45^+ cells >1% were included in the treatment cohort for Rebecchini. The dosing plan involved administering Rebecsinib at a dose of 10 mg/kg, intravenously, twice a week for 2 weeks, with a total of 5 doses. Single cells were isolated from the mouse organs, including PB, SP, and BM, and subjected to staining with human stem cell markers and lineage cell markers.
These mice were monitored for survival throughout the study until they reached the endpoint. Survival data were analyzed using a Log-rank test.

[1] = NHP single-dose toxicokinetic study; assay type: in vivo, cynomolgus monkeys
Description: Pre-IND PD and toxicokinetic (TK) studies (FIG. 4D) were enabled by scalable Rebecsinib synthesis^34 and development of an optimized formulation for in vivo biodistribution (5% w/v EtOH, 5% w/v Kolliphor HS15 in 0.9% Sodium Chloride). In PK studies, Rebecsinib was detectable in rat, rabbit, and non-human primate (NHP) plasma following IV bolus administration. In rat TK studies, Rebecsinib was quantifiable up to 1-hour post-dose at 1 mg/kg and up to 4 hours post-dose at 3, 5, and 8 mg/kg (FIG. 4E). […] Rebecsinib T1/2 values were 0.342, 0.447, 0.313, and 0.530 hours at 1, 3, 5, and 8 mg/kg, respectively. […] Following 3, 10, and 20 mg/kg boluses, Rebecsinib was quantifiable in plasma 1 hour post-dose and could be detected up to 8 hours post-dosing with 40 mg/kg (FIG. 4F). […] Following 3, 10, 15, and 20 mg/kg of Rebecsinib, quantifiable plasma concentrations of Rebecsinib were observed through 8 hrs post-dose (FIG. 4G).
(FIG. 29D) Schematic diagram outlining multispecies toxicokinetic (TK) and pharmacodynamic studies in mammalian species treated in vivo with a single dose of Rebecsinib. Toxicokinetic analyses were performed in rats (n=6 per sex, per group), rabbits (n=2 per sex, per group), and non-human primates (NHPs, n=1 per sex, per group) and pharmacodynamic splice isoform quantification studies were performed in peripheral blood mononuclear cells (PBMCs) from NHP.
(FIG. 29G, FIG. 29H) For in vivo TK and complementary pharmacodynamic studies, NHPs were given a single injection of Rebecsinib at 3-20 mg/kg, or vehicle control, and blood samples were drawn at regular intervals to determine plasma concentrations (FIG. 29G) of the compound along with splice isoform biomarker assays to quantify MCL1 exon skipping in PBMCs isolated from treated animals (FIG. 29H, n=2 animals per group).
Single-dose TK studies were performed in Sprague Dawley rats (Charles River Labs, South San Francisco, CA), New Zealand white rabbits (BASi/Inotiv, West Lafayette, IN), and cynomolgus monkeys (BASi/Inotiv). Rat and rabbit studies included toxicology analyses, quantification of plasma levels of Rebecsinib, and necropsies to evaluate organ integrity after treatment. For NHP studies, health and ophthalmological evaluations were performed before and after dosing with Rebecsinib, and blood samples were collected for quantification of plasma levels of Rebecsinib and biomarker studies in PBMCs from treated and control animals. All monkeys were returned to the animal colony after the end of the observation period. Toxicokinetic values including mean plasma concentrations and t1/2 values were calculated according to CRO-approved protocols (Charles River and BASi).

## CC[C@H](OC)[C@@H](C)[C@H]1O[C@@H]1[C@@H](O)[C@H](C)/C=C/C=C(\C)[C@H]1OC(=O)C[C@H](O)CC[C@@](C)(O)[C@@H](OC(C)=O)/C=C/[C@@H]1C [Rebecsinib]
sAML PDX mouse models; compared to vehicle, fedratinib, and the combination of rebecsinib and fedratinib
  survival of sAML-engrafted mice: survived significantly longer
sAML PDX mouse models; single rebecsinib vs single fedratinib, p=0.016, Log-rank test
  survival time versus single fedratinib: significantly longer
sAML PDX mouse models; single rebecsinib vs vehicle, p=0.0003, Log-rank test
  survival time versus vehicle: significantly longer
[1]
  tolerability: favorable tolerability
[1]; 20 mg/kg, resolved within 24 hours with no treatment and no sequelae
  diarrhea: one female NHP in the 20 mg/kg treatment group developed diarrhea
[1]; IV bolus, 3, 10, 15, and 20 mg/kg
  quantifiable plasma concentrations through time post-dose: up to 8 hrs
[1]; IV bolus, all dose levels
  peak (Cmax) levels, male vs female: comparable between male and females
  total (AUClast) levels, male vs female: comparable between male and females
[1]; cynomolgus monkey, plasma, IV bolus, read-out: half-life (t1/2)
  half-life: 37.2 to 66 min

— patent US20260364072A1, “METHODS FOR PROMOTING EXPANSION OF HUMAN CD34+ CELLS IN VIVO AND FOR PROMOTING NEURAL REGENERATION” (THE REGENTS OF THE UNIVERSITY OF CALIFORNIA, priority 2023, published 2026)
